Assay results published in patent US10392379B2, “Hepatitis B core protein modulators” (Assembly Biosciences, Inc., priority 2015, dated 2019).

Key:
AD38 cells = test: Viability of AD38 cells (Promega CellTiter-Glo); format: cell-based; conditions: 10 μM compound, 6 days, DMSO controls = 100%
Protocol: (§1) AD38 cells were then re-suspended with 10 mL of Treatment Medium and counted. Wells of a collagen coated 96-well NUNC microtiter plate were seeded at 50,000/well in 180 μL of Treatment Medium, and 20 μL of in treatment media with either 10% DMSO (Control) or a 10× solution of compound in 10% DMSO was added. Plates were incubated for 6 days at 37° C.
At the end of compound treatment period cell viability was assessed using a Promega CellTiter-Glo protocol. All supernatant was removed the previously treated 96-well microtiter plate, and 50 μL Tetracycline-free treatment medium (DMEM/F12 (1:1), 1× Pen/step (cat#: 30-002-CL, Mediatech, Inc), with 2% FBS, Tet-system approved (cat#: 631106, Clontech), and 1% DMSO was added back to each well. Another 50 μL of CellTiter-Glo reagent solution (Promega, G7573) was then added at room temperature and the contents mixed for 2 minutes on an orbital shaker to induce cell lysis. This was followed by incubation at room temperature for 10 minutes to stabilize the luminescent signal. The luminescence was recorded for 0.2 seconds per well on a Tecan multimode platereader (Infinite M1000 pro). The luminescent signal from each well was normalized against that of untreated (DMSO) control wells. All results in Table 3 were reported with percent viability (with controls being 100%).

HBV = test: Viral load production in AD38 cells by quantitative PCR of the core sequence; format: cell-based; conditions: Hepatitis B virus, 144 h, 10 μM compound, 6 days, supernatant qPCR, relative to DMSO control, read-out: AD38 Viral Load (%) (VL with cmpd/VL in DMSO control) at 10 μM
Protocol: as §1
Viral load production was assayed by quantitative PCR of the core sequence. […] The PCR mixture was incubated at 45° C. for 5 minutes, then 95° C. for 10 min, followed by 40 cycles of 10 seconds at 95° C. and 20 seconds at 60° C. Viral load was quantitated against known standards by using ViiA™ 7 Software. Viral load in the supernatant from wells with treated cells were compared against viral load in supernatant from DMSO control wells (≥3 per plate).

SMILES	AD38 Viability Normalized Result (cmpd/DMSO %) at 10 μM (AD38 cells) [%]	activity at 10 µM (HBV) [%]
O=C(NCc1cccnc1)c1ccc2c(c1)NC(=O)c1ccc(Cl)cc1S2 [Compound 543]	24	1.2
NC(=O)c1ccc(-c2ccc(CNC(=O)c3ccc4c(c3)NC(=O)c3ccccc3S4(=O)=O)nc2)cc1 [Compound 870, N-((5-(4-carbamoylphenyl)pyridin-2-yl)methyl)-11-oxo-10, 11-dihydrodibenzo[b,f][1,4]thiazepine-8-carboxamide 5,5-dioxide]	106	82.7
O=C(NCc1ccc(-c2ccc3[nH]ncc3c2)nc1)c1ccc2c(c1)NC(=O)c1ccccc1S2(=O)=O [Compound 780]	106	1.8
O=C(NCc1nnc(-c2ccc(O)cc2)s1)c1ccc2c(c1)NC(=O)c1ccccc1O2 [Compound 739]	108	62.2
O=C(NCc1cccnc1)c1ccc2c(c1)NC(=O)c1cc(Cl)ccc1S2 [Compound 540]	52	0.6
Nc1ncc(-c2ncc(CNC(=O)c3ccc4c(c3)NC(=O)c3ccccc3S4(=O)=O)cn2)cn1 [Compound 792]	105	23.1
O=C(NCc1cnc(C(F)(F)F)nc1)c1ccc2c(c1)NC(=O)c1ccccc1S2(=O)=O [Compound 876]	101	65.5
O=C(NCc1ccc(-c2ccc(O)cc2)nc1)c1ccc2c(c1)NC(=O)c1ccccc1S2(=O)=O [Compound 778]	104	3.2
